For one experiment, the system named is HIV-1. The note with it: among low molecular weight ATA components ref 39, 43; cited from earlier work.
Experiment [1] addresses SARS-CoV-2 RdRp (nsp12/7/8 complex) (Severe acute respiratory syndrome coronavirus 2, UniProt P0DTD1). Description: Inhibition of SARS-CoV-2 RdRp active complex (RNA extension assay). Format: biochemical. Particulars: RdRp-mediated RNA replication, 37 °C, 60 min, 1 μM RdRp complex.
In experiment [2] the test system is protein synthesis in rabbit reticulocyte lysates. Description: Inhibition of protein synthesis in rabbit reticulocyte lysates (luciferase mRNA, luminescence). The format is biochemical. Particulars: for impact on protein synthesis: concentration range extending to 50 μM; for EC50: luciferase mRNA, 30 °C, 90 min, read-out: EC50 (50% inhibitory concentration); for inhibition of translation: at 100 μM. As for the experimental part: The dose–response change in chemoluminescense monitored in the presence of various concentrations of investigational drugs following addition of luciferin allows comparison across compounds.
Assay conditions were employed as recommended by the manufacturer. In summary, reactions (20 μL) contained 80% TNT Quick master mix, 20 µM methionine, and 40 ng/µL luciferase RNA (Promega; L4561) at the indicated concentration of test chemicals. Samples were incubated at 30 °C for 90 min and diluted ten-fold with PBS. An aliquot (2 μL) was mixed with 20 μL of luciferase assay reagent (Promega; E1500) and luminescence was measured with a Turner Designs Model TD-20/20 Luminometer. Depending on the compound evaluated, experiments were repeated two-four times with good agreement between the runs. […] The results are reported as average values including the mean and standard deviation wherever applicable.

For experiment [3], the system named is protein synthesis in Vero E6 cells. Description: Protein synthesis in cultured cells: puromycin pulse labeling and immunoblotting. Format: cell-based, African green monkey. As for the experimental part: Prior to the experiment, Vero E6 cells were seeded at 30,000 cells per cm^2 in 6-well plates in 5% FBS-EMEM. […] Control experiments were conducted in the absence and presence of cycloheximide (1–150 μM) or DMSO. Following incubation with puromycin for 10 min, the medium was quickly removed and cells washed with warm PBS and allowed to recover in drug-free 5% FBS-EMEM for 30 min. Cell pellets collected by trypsinization and centrifugation were stored at −80 °C while awaiting protein preparation and immunoblotting as described below.
Cell lysates were prepared in RIPA (radio-immunoprecipitation) buffer (Sigma; R0278) containing protease inhibitors (Sigma; P8340). Protein concentrations were determined via the Pierce^TM bicinconinic acid (BCA) assay (Thermo Fisher Scientific, Waltham, MA, USA) using bovine serum albumin as a standard. All procedures were performed in accordance with protocols recommended by the manufacturers. For immunoblotting, 8 μg of protein was combined with Laemmli buffer containing 10% β-mercaptoethanol, heated at 95 °C for 5 min and loaded on 8–16% Mini-PROTEAN® TGX™ precast protein gels. Samples were resolved via electrophoresis in Tris-Gly-SDS buffer and transferred to nitrocellulose membranes in Tris-Gly buffer containing 20% methanol at 4–6 V/cm^2 for one hour. Membranes were blocked in 10 mM sodium phosphate buffer containing 150 mM NaCl (pH 7.8), 5% milk and 0.1% TWEEN20 (PBST) at room temperature for at least one hour, then incubated overnight with primary anti-puromycin antibodies (TFS; MABE343 mouse monoclonal antibodies clone 12D10; 1:25,000) at 4 °C. […]
For β-actin staining, the same membranes used for puromycin immunostaining were washed four times for five min with 20 mM Tris-buffered saline containing 500 mM sodium chloride (pH 7.5) and 0.1% TWEEN20 (TBST) and stripped by two rounds of 20- and 10-min washes at 50 °C in glycine buffer (pH 2.2) containing 0.1% SDS (w/v) and 1% TWEEN20. […] The results were quantified with Image J 1.52a software using β-actin staining for each sample as an internal reference.
For orientation: A western blot detects proteins with antibodies after separation by electrophoresis.

Experiment [4] addresses T1, human serum albumin (HSA) (Homo sapiens, UniProt P02768).
T1 construct: purchased Millipore Sigma A1887
Description: HSA binding energetics via isothermal titration calorimetry (ITC). Particulars: for TΔS / ΔG / ΔH: pH 7.4. As for the experimental part: The resultant heats are integrated to yield a binding profile (bottom panel) that is fit via nonlinear least squares analysis to a single site model (red line).
The protein was prepared as described in Section 5.1 and dialyzed exhaustively against a buffer comprised of 10 mM sodium phosphate adjusted to pH 7.4. […] Each ITC experiment consisted of thirty consecutive 10.0 µL injections during which the reaction heat is monitored and integrated over a 5.0 min period under continuous stirring. The experimental protocol has been designed to ensure that there is a tenfold excess of ligand in the titration syringe relative to standard protein concentration in the sample cell. The resultant binding isotherms are generated by recording the integrated reaction heats normalized for ligand concentration versus the HSA:ligand ratio. A nonlinear least squares fit of the resultant profile to a single site binding model yields thermodynamic parameters for the HSA–ligand complex including the affinity (Ka), Gibbs free energy (ΔG), enthalpy (ΔH), and entropy (ΔS).
A general note: In ITC the heat of successive injections is recorded.

The subject of a further experiment is hCoV-OC43. In words: Antiviral properties in hCoV-OC43 and VERO E6 cells (data not shown). The format is cell-based. Particulars: concentrations ≥200 μM.
In a further experiment the target is yeast 80S ribosomes. Description: Ligand–ribosome binding via fluorescence anisotropy. Background: Polarisation of emitted light reports the rotation of a fluorescent probe.
The mark [5] stands for this setting: ITC, 25.0 °C, listed as Dichlorohexamer.

Several values for one entry are separate records, joined by “and”; a condition that tells them apart may be missing. Equal entries are not always repeated.

Data on six compounds can be found in PMC9227171 (Life, 2022).

As usually defined, the IC50 is the concentration that gives 50% inhibition. Higher therefore signals weaker potency. The Kd is the concentration at which binding is half-saturated. The low end stands for a tighter complex, the high end for a looser complex.

T1 sequence (P02768 25-609): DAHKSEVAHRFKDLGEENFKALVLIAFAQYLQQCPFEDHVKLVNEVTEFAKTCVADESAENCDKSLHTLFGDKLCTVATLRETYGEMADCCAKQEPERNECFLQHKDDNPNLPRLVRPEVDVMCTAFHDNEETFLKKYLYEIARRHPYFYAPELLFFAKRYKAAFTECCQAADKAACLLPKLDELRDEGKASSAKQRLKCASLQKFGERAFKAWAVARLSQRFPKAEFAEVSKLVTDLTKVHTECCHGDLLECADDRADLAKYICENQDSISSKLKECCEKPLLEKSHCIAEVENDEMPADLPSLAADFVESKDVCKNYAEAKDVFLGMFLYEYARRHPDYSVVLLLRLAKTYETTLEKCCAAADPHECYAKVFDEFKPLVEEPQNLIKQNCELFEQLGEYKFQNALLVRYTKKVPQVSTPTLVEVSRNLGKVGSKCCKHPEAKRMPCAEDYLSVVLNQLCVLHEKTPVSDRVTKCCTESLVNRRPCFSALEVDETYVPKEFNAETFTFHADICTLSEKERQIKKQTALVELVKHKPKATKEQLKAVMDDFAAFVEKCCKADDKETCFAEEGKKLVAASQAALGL

Regarding `O=C(O)c1cc(Cc2cc(C(c3ccc(O)c(C(=O)O)c3)c3ccc(O)c(C(=O)O)c3)cc(C(=O)O)c2O)ccc1O` [compound 2], the “activity against HIV-1” value with HIV-1 is “most active”.

Consider `O=C(O)c1cc(Cc2cc(Cc3cc(Cc4ccc(O)c(C(=O)O)c4)c(O)c(C(=O)O)c3)cc(C(=O)O)c2O)ccc1O` [compound 9], for which the IC50 in experiment [1] was 514 µM and ~514 µM. Further, the “impact on protein synthesis” value in experiment [2] is given as “did not impact protein synthesis”.

As to `C[C@@H]1C[C@@H]([C@H](O)CC2CC(=O)NC(=O)C2)C(=O)[C@@H](C)C1` [Cycloheximide], the activity at 150 µM in experiment [3] (Chlorocebus sabaeus, Vero C1008, 150 uM, read-out: % activity (anti-puromycin/b-actin densitometry)) was -3.99%. In addition, in experiment [3] (Chlorocebus sabaeus, Vero C1008, 300 uM, read-out: % activity (anti-puromycin/b-actin densitometry)), the activity at 300 µM was -3.95%. In experiment [3] (puromycin labeling), the “concentration that inhibits protein synthesis” value is 1 µM. Besides, the EC50 in experiment [2] turned out to be 0.106 µM.

Turning to `O=C(O)c1cc(Cc2cc(Cc3cc(Cc4cc(Cl)c(O)c(C(=O)O)c4)c(O)c(C(=O)O)c3)cc(C(=O)O)c2O)cc(Cl)c1O` [compound 8], in experiment [1], the half-maximal inhibitory concentration (IC50) was 163 µM and ~163 µM. Moreover, the “impact on protein synthesis” value in experiment [2] is reported as “did not impact protein synthesis”.

In the case of `O=C(O)c1cc(Cc2cc(Cc3ccc(O)c(C(=O)O)c3)c(O)c(C(=O)O)c2)ccc1O` [compound 3], the “activity against HIV-1” value with HIV-1 is “most active”.

For `O=C(O)c1cc(Cc2cc(Cc3cc(Cc4cc(Cc5cc(Cc6cc(Cl)c(O)c(C(=O)O)c6)c(O)c(C(=O)O)c5)c(O)c(C(=O)O)c4)cc(C(=O)O)c3O)cc(C(=O)O)c2O)cc(Cl)c1O` [compound 11], the dissociation constant Kd in experiment [4] (ITC, 25.0 °C, 10 mM sodium phosphate pH 7.4) was 1 ± 0.1 µM; at yeast 80S ribosomes (25 °C, fluorescence anisotropy), 0.21 ± 0.02 µM; on yeast 80S ribosomes (purified yeast ribosomes, discussion value) it was ~0.2 µM. The “Ka × 10^5” value in experiment [4] (ITC, 25.0 °C, 10 mM sodium phosphate pH 7.4, single site model) was 9.9 ± 0.5 10^5 M^−1. In addition, the TΔS in experiment [4] (ITC, 25.0 °C) was -7.1 kcal/mol; in experiment [4] (setting [5]) it was -7.1 ± 0.2 kcal/mol. The ΔG in experiment [4] (ITC, 25.0 °C) was -8.0 kcal/mol; in experiment [4] (setting [5]), -8.0 ± 0.2 kcal/mol. Further, the ΔH in experiment [4] (ITC, 25.0 °C) was -15.1 kcal/mol; in experiment [4] (setting [5]) it was -15.1 ± 0.2 kcal/mol. Moreover, in experiment [4] (ITC, per monomeric unit of ATA (Mw 422.34) or per dichlorohexamer (Mw 956)), the stoichiometry n is 1.0 ±0.0. This compound came in with a ΔΔG in experiment [4] (chlorinated hexamer versus heterogeneous polymeric ATA, HSA binding) of 0.4 kcal/mol. For the same compound, the antiviral properties entry with hCoV-OC43 was “modest activity”. This compound yielded an IC50 in experiment [1] of 0.108 µM. In addition, the inhibition of translation in experiment [2] was ~100%; in experiment [2] (signal comparable to background), “completely inhibited translation”. For the same compound, in experiment [2], the EC50 was determined as 28.1 µM. The “affinity (double reciprocal plot)” value in the experiment with yeast 80S ribosomes (25 °C, ligand 1 μM, excitation/emission 305/420 nm) is reported as 4.8 × 10 ^6 M^−1.
